Results reported in US6410551B1, “Tetrazole derivatives” (Byk Gulden Lomberg Chemische Fabrik GmbH, priority 1997, dated 2002).

Experiments:
[1] = tested on: PDE 4; assay: Inhibition of PDE 4 activity (method of Bauer and Schwabe, adapted to microtiter plates); format: biochemical; conditions: inhibitory concentration as -log IC50 (mol/l)
Method: 1. Inhibition of PDE 4 Activity
The activity test was carried out by the method of Bauer and Schwabe, which was adapted to microtiter plates (Naunyn-Schmiedeberg's Arch. Pharmacol. 1980, 311, 193-198). In this connection, the PDE reaction is carried out in the first step. In a second step, the resultant 5′-nucleotide is cleaved to give the uncharged nucleoside by a 5′-nucleotidase of the snake venom from Crotalus atrox. In the third step, the nucleoside is separated from the remaining charged substrate on ion exchange columns. The columns are eluted with 2 ml of 30 mM ammonium formate (pH 6.0) directly into minivials to which 2 ml of scintilation fluid is additionally added for counting.

**Q.** Which melting point does the source give for `CCOc1cc2c(cc1OC)C(c1ccc(-c3nnn(CC)n3)cc1)=N[C@H]1CCCC[C@@H]21` (racemic) [Compound 2, (+/−)-cis-9-Ethoxy-8-methoxy-6-[4-(2ethyl-2H-tetrazol-5-yl)phenyl]-1,2,3,4,4a,10b-hexahydrophenanthridine] here?
**A.** 167 to 170 °C

**Q.** And the “Inhibition of the PDE 4 activity, −log IC50” value [1]?
**A.** 8.78
